ChEMBL document CHEMBL4765470 (J Med Chem, 2021)
Starred links: 1 amine or outer side, 2 acyl side, 3 side chain; linkers in the order of their positions; H or OH if unused. Non-standard residues stand in square brackets, D forms with d. Residues, ends and D or L forms follow the SMILES beside them. *: point of attachment. Bpa = N[C@@H](Cc1ccc(C(=O)c2ccccc2)cc1)C(=O)O; β3hPhg = O=C(C[C@@H](N[*:1])c1ccccc1)[*:2]; Bip = N[C@@H](Cc1ccc(-c2ccccc2)cc1)C(=O)O; GABA(4S-Me) = C[C@@H](CCC(=O)[*:2])N[*:1]; X1 = O=C([C@]1(Cc2ccccc2)CCCN1[*:1])[*:2]; 1Nal = N[C@@H](Cc1cccc2ccccc12)C(=O)O; Tic = O=C(O)[C@@H]1Cc2ccccc2CN1; Pip = O=C(O)[C@@H]1CCCCN1; Nle = CCCC[C@H](N)C(=O)O; Ac5c = NC1(C(=O)O)CCCC1; Aze = O=C(O)[C@@H]1CCN1; Ac3c = NC1(C(=O)O)CC1; Aib = CC(C)(N)C(=O)O; Bn = c1ccc(C*)cc1

target: T1, Apelin receptor (Homo sapiens, UniProt P35414); test: Displacement of [125I] [NIe75, Tyr77]Pyr-apelin-13 from YFP-tagged human APJ receptor expressed in HEK293 cell membranes incubated for 1 hr by gamma counting based Cheng-Prusoff equation analysis
T1 sequence (P35414 whole entry): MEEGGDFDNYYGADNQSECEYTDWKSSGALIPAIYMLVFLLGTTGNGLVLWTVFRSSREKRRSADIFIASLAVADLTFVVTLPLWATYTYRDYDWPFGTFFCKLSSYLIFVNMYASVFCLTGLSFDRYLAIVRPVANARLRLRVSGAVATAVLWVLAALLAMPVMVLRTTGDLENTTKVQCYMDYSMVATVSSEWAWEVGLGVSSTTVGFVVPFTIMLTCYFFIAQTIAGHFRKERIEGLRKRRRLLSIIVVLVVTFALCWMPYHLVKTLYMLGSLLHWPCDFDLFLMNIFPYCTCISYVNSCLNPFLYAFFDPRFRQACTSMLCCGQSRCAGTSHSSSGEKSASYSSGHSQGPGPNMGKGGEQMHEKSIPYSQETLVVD

| SMILES | Ki [nM] |
| --- | --- |
| CCCC[C@H](N)C(=O)N1CCC[C@H]1C(=O)N[C@@H](Cc1ccccc1)C(=O)N[C@@H](Cc1cnc[nH]1)C(=O)N[C@@H](CO)C(=O)N[C@@H](CCCNC(=N)N)C(=O)N[C@H](C(=O)N1CCC[C@H]1C(=O)N[C@@H](Cc1ccccc1)C(=O)N1CCC[C@H]1C(=O)O)C(C)C (H-[Nle]PFHSRVPFP-OH) | 212 |
| CCCC[C@H](N)C(=O)N1CCC[C@H]1C(=O)N[C@@H](CC(C)C)C(=O)N[C@@H](C)C(=O)N[C@@H](CO)C(=O)N[C@@H](CCCNC(=N)N)C(=O)N[C@H](C(=O)N1CCC[C@H]1C(=O)N[C@@H](Cc1ccccc1)C(=O)N1CCC[C@H]1C(=O)O)C(C)C (H-[Nle]PLASRVPFP-OH) | 1460 |
| CCCC[C@H](N)C(=O)N1CCC[C@H]1C(=O)N[C@@H](CC(C)C)C(=O)N[C@@H](Cc1ccccc1)C(=O)N[C@@H](CO)C(=O)N[C@@H](CCCNC(=N)N)C(=O)N[C@H](C(=O)N1CCC[C@H]1C(=O)N[C@@H](Cc1ccccc1)C(=O)N1CCC[C@H]1C(=O)O)C(C)C (H-[Nle]PLFSRVPFP-OH) | > 10000 |
| CCCC[C@H](N)C(=O)N1CCC[C@H]1C(=O)N[C@@H](CC(C)C)C(=O)N[C@@H](Cc1cnc[nH]1)C(=O)N[C@@H](CO)C(=O)N[C@@H](CCCNC(=N)N)C(=O)N[C@@H](C)C(=O)N1CCC[C@H]1C(=O)N[C@@H](Cc1ccccc1)C(=O)N1CCC[C@H]1C(=O)O (H-[Nle]PLHSRAPFP-OH) | 419 |
| CCCC[C@H](N)C(=O)N1CCC[C@H]1C(=O)N[C@@H](CC(C)C)C(=O)N[C@@H](Cc1cnc[nH]1)C(=O)N[C@@H](CO)C(=O)N[C@@H](CCCNC(=N)N)C(=O)N[C@H](C(=O)N1CCC[C@H]1C(=O)N[C@@H](C)CCC(=O)O)C(C)C (H-[Nle]PLHSRVP-{GABA(4S-Me)}) | > 10000 |
| CCCC[C@H](N)C(=O)N1CCC[C@H]1C(=O)N[C@@H](CC(C)C)C(=O)N[C@@H](Cc1cnc[nH]1)C(=O)N[C@@H](CO)C(=O)N[C@@H](CCCNC(=N)N)C(=O)N[C@H](C(=O)N1CCC[C@H]1C(=O)N[C@H](CC(=O)O)c1ccccc1)C(C)C (H-[Nle]PLHSRVP-β3hPhg) | 228 |
| CCCC[C@H](N)C(=O)N1CCC[C@H]1C(=O)N[C@@H](CC(C)C)C(=O)N[C@@H](Cc1cnc[nH]1)C(=O)N[C@@H](CO)C(=O)N[C@@H](CCCNC(=N)N)C(=O)N[C@H](C(=O)N1CCC[C@H]1C(=O)N[C@@H](C)C(=O)N1CCC[C@H]1C(=O)O)C(C)C (H-[Nle]PLHSRVPAP-OH) | > 10000 |
| CCCC[C@H](N)C(=O)N1CCC[C@H]1C(=O)N[C@@H](CC(C)C)C(=O)N[C@@H](Cc1cnc[nH]1)C(=O)N[C@@H](CO)C(=O)N[C@@H](CCCNC(=N)N)C(=O)N[C@H](C(=O)N1CCC[C@H]1C(=O)N[C@@H](Cc1ccccc1)C(=O)O)C(C)C (H-[Nle]PLHSRVPF-OH) | 128 |
| CCCC[C@H](N)C(=O)N1CCC[C@H]1C(=O)N[C@@H](CC(C)C)C(=O)N[C@@H](Cc1cnc[nH]1)C(=O)N[C@@H](CO)C(=O)N[C@@H](CCCNC(=N)N)C(=O)N[C@H](C(=O)N1CCC[C@H]1C(=O)N[C@@H](Cc1ccccc1)C(=O)N1CCC[C@@]1(Cc1ccccc1)C(=O)O)C(C)C (H-[Nle]PLHSRVPF[X1]-OH) | 916 |
| CCCC[C@H](N)C(=O)N1CCC[C@H]1C(=O)N[C@@H](CC(C)C)C(=O)N[C@@H](Cc1cnc[nH]1)C(=O)N[C@@H](CO)C(=O)N[C@@H](CCCNC(=N)N)C(=O)N[C@H](C(=O)N1CCC[C@H]1C(=O)N[C@@H](Cc1ccc(OCc2ccccc2)cc1)C(=O)N1CCC[C@H]1C(=O)O)C(C)C (H-[Nle]PLHSRVPY(Bn)P-OH) | > 10000 |
| CCCC[C@H](N)C(=O)N1CCC[C@H]1C(=O)N[C@@H](CC(C)C)C(=O)N[C@@H](Cc1cnc[nH]1)C(=O)N[C@@H](CO)C(=O)N[C@@H](CCCNC(=N)N)C(=O)N[C@H](C(=O)N1CCC[C@H]1C(=O)N[C@@H](Cc1ccc(-c2ccccc2)cc1)C(=O)N1CCC[C@H]1C(=O)O)C(C)C (H-[Nle]PLHSRVP[Bip]P-OH) | > 10000 |
| CCCC[C@H](N)C(=O)N1CCC[C@H]1C(=O)N[C@@H](CC(C)C)C(=O)N[C@@H](Cc1cnc[nH]1)C(=O)N[C@@H](CO)C(=O)N[C@@H](CCCNC(=N)N)C(=O)N[C@H](C(=O)N1CCC[C@H]1C(=O)N[C@@H](Cc1ccc(C(=O)c2ccccc2)cc1)C(=O)N1CCC[C@H]1C(=O)O)C(C)C (H-[Nle]PLHSRVP[Bpa]P-OH) | > 10000 |
| CCCC[C@H](N)C(=O)N1CCC[C@H]1C(=O)N[C@@H](CC(C)C)C(=O)N[C@@H](Cc1cnc[nH]1)C(=O)N[C@@H](CO)C(=O)N[C@@H](CCCNC(=N)N)C(=O)N[C@H](C(=O)NC1(C(=O)N[C@@H](Cc2ccccc2)C(=O)O)CC1)C(C)C (H-[Nle]PLHSRV[Ac3c]F-OH) | > 10000 |
| CCCC[C@H](N)C(=O)N1CCC[C@H]1C(=O)N[C@@H](CC(C)C)C(=O)N[C@@H](Cc1cnc[nH]1)C(=O)N[C@@H](CO)C(=O)N[C@@H](CCCNC(=N)N)C(=O)N[C@H](C(=O)NC(C)(C)C(=O)N[C@@H](Cc1ccccc1)C(=O)O)C(C)C (H-[Nle]PLHSRV[Aib]F-OH) | > 10000 |
| CCCC[C@H](N)C(=O)N1CCC[C@H]1C(=O)N[C@@H](CC(C)C)C(=O)N[C@@H](Cc1cnc[nH]1)C(=O)N[C@@H](CO)C(=O)N[C@@H](CCCNC(=N)N)C(=O)N[C@H](C(=O)N1CC[C@H]1C(=O)N[C@@H](Cc1ccccc1)C(=O)O)C(C)C (H-[Nle]PLHSRV[Aze]F-OH) | 159 |
| CCCC[C@H](N)C(=O)N1CCC[C@H]1C(=O)N[C@@H](CC(C)C)C(=O)N[C@@H](Cc1cnc[nH]1)C(=O)N[C@@H](CO)C(=O)N[C@@H](CCCNC(=N)N)C(=O)N[C@H](C(=O)N1CCCC[C@H]1C(=O)N[C@@H](Cc1ccccc1)C(=O)O)C(C)C (H-[Nle]PLHSRV[Pip]F-OH) | 186 |
| CCCC[C@H](N)C(=O)N1CCC[C@H]1C(=O)N[C@@H](CC(C)C)C(=O)N[C@@H](Cc1cnc[nH]1)C(=O)N[C@@H](CO)C(=O)N[C@@H](CCCNC(=N)N)C(=O)NC1(C(=O)N2CCC[C@H]2C(=O)N[C@@H](Cc2ccccc2)C(=O)N2CCC[C@H]2C(=O)O)CC1 (H-[Nle]PLHSR[Ac3c]PFP-OH) | > 10000 |
| CCCC[C@H](N)C(=O)N1CCC[C@H]1C(=O)N[C@@H](CC(C)C)C(=O)N[C@@H](Cc1cnc[nH]1)C(=O)N[C@@H](CO)C(=O)N[C@@H](CCCNC(=N)N)C(=O)NC1(C(=O)N2CCC[C@H]2C(=O)N[C@@H](Cc2ccccc2)C(=O)N2CCC[C@H]2C(=O)O)CCCC1 (H-[Nle]PLHSR[Ac5c]PFP-OH) | > 10000 |

Compounds with a lower Ki, results first:

| Ki [nM] | SMILES |
| --- | --- |
| 38 | CCCC[C@H](N)C(=O)N1CCC[C@H]1C(=O)N[C@@H](CC(C)C)C(=O)N[C@@H](Cc1cnc[nH]1)C(=O)N[C@@H](CO)C(=O)N[C@@H](CCCNC(=N)N)C(=O)N[C@H](C(=O)N1CCC[C@H]1C(=O)N[C@@H](Cc1ccccc1)C(=O)N1C[C@H](OCc2ccccc2)C[C@H]1C(=O)O)C(C)C |
| 69 | CCCC[C@H](N)C(=O)N1CCC[C@H]1C(=O)N[C@@H](CC(C)C)C(=O)N[C@@H](Cc1cnc[nH]1)C(=O)N[C@@H](CO)C(=O)N[C@@H](CCCNC(=N)N)C(=O)N[C@@H](CCC)C(=O)N1CCC[C@H]1C(=O)N[C@@H](Cc1ccccc1)C(=O)N1CCC[C@H]1C(=O)O |
| 76 | CCCC[C@H](N)C(=O)N1CCC[C@H]1C(=O)N[C@@H](CC(C)C)C(=O)N[C@@H](Cc1cnc[nH]1)C(=O)N[C@@H](CO)C(=O)N[C@@H](CCCNC(=N)N)C(=O)N[C@H](C(=O)N1CCC[C@H]1C(=O)N[C@@H](Cc1ccccc1)C(=O)N1C[C@H](O)C[C@H]1C(=O)O)C(C)C |
| 120 | CCCC[C@H](N)C(=O)N1CCC[C@H]1C(=O)N(C)[C@@H](CC(C)C)C(=O)N[C@@H](Cc1cnc[nH]1)C(=O)N[C@@H](CO)C(=O)N[C@@H](CCCNC(=N)N)C(=O)N[C@H](C(=O)N1CCC[C@H]1C(=O)N[C@@H](Cc1ccccc1)C(=O)N1CCC[C@H]1C(=O)O)C(C)C |
| 45 | CCCC[C@H](N)C(=O)N1CCC[C@H]1C(=O)N[C@@H](CC(C)C)C(=O)N[C@@H](Cc1cnc[nH]1)C(=O)N[C@@H](CO)C(=O)N[C@@H](CCCNC(=N)N)C(=O)N[C@@H](CC(C)C)C(=O)N1CCC[C@H]1C(=O)N[C@@H](Cc1ccccc1)C(=O)N1CCC[C@H]1C(=O)O (H-[Nle]PLHSRLPFP-OH) |
| 57 | CCCC[C@H](N)C(=O)N1CCC[C@H]1C(=O)N[C@@H](CC(C)C)C(=O)N[C@@H](Cc1cnc[nH]1)C(=O)N[C@@H](CO)C(=O)N[C@@H](CCCNC(=N)N)C(=O)N[C@H](C(=O)N1CCC[C@H]1C(=O)N[C@@H](Cc1ccccc1)C(=O)N[C@@H](C)C(=O)O)C(C)C (H-[Nle]PLHSRVPFA-OH) |
| 29 | CCCC[C@H](N)C(=O)N1CCC[C@H]1C(=O)N[C@@H](CC(C)C)C(=O)N[C@@H](Cc1cnc[nH]1)C(=O)N[C@@H](CO)C(=O)N[C@@H](CCCNC(=N)N)C(=O)N[C@H](C(=O)N1CCC[C@H]1C(=O)N[C@@H](Cc1ccccc1)C(=O)N1Cc2ccccc2C[C@H]1C(=O)O)C(C)C (H-[Nle]PLHSRVPF[Tic]-OH) |
| 92 | CCCC[C@H](N)C(=O)N1CCC[C@H]1C(=O)N[C@@H](CC(C)C)C(=O)N[C@@H](Cc1cnc[nH]1)C(=O)N[C@@H](CO)C(=O)N[C@@H](CCCNC(=N)N)C(=O)N[C@H](C(=O)N1CCC[C@H]1C(=O)N[C@@H](Cc1ccc(OCc2ccccc2)cc1)C(=O)O)C(C)C (H-[Nle]PLHSRVPY(Bn)-OH) |
| 94 | CCCC[C@H](N)C(=O)N1CCC[C@H]1C(=O)N[C@@H](CC(C)C)C(=O)N[C@@H](Cc1cnc[nH]1)C(=O)N[C@@H](CO)C(=O)N[C@@H](CCCNC(=N)N)C(=O)N[C@H](C(=O)N1CCC[C@H]1C(=O)N[C@@H](Cc1cccc2ccccc12)C(=O)O)C(C)C (H-[Nle]PLHSRVP[1Nal]-OH) |
| 48 | CCCC[C@H](N)C(=O)N1CCC[C@H]1C(=O)N[C@@H](CC(C)C)C(=O)N[C@@H](Cc1cnc[nH]1)C(=O)N[C@@H](CO)C(=O)N[C@@H](CCCNC(=N)N)C(=O)N[C@H](C(=O)N1CCC[C@H]1C(=O)N[C@@H](Cc1ccc(C(=O)c2ccccc2)cc1)C(=O)O)C(C)C (H-[Nle]PLHSRVP[Bpa]-OH) |
